Experimental data published in patent US9333193B2, “Compositions and methods for treating tuberculosis” (priority 2010, dated 2016).
≈ marks a conversion by molar mass, not a printed value. Like-named read-outs stand apart in the source and are kept apart here.

Experiments:
[1] = system: Mycobacterium tuberculosis; assay: microbe, parasite or virus in culture; details: agar proportion
[2] = system: M. tuberculosis; assay: microbe, parasite or virus in culture; type: cell-based, Mycobacterium tuberculosis; parameters: % Inhibit growth, H37Rv / % Inhibit growth, Susceptible / % Inhibit growth, MDR / % Inhibit growth, XDR / inhibition: dose or concentration left out as unconfirmed; details: for inhibition: Mycobacterium tuberculosis; for % Inhibit growth, MDR: MDR strain; for % Inhibit growth, MDR / % Inhibit growth, Susceptible / % Inhibit growth, XDR / % Inhibit growth, H37Rv / Potency against M. tuberculosis in words (Table 1): agar proportion method; for % Inhibit growth, Susceptible: Susceptible strain; for % Inhibit growth, XDR: XDR strain; for % Inhibit growth, H37Rv: strain H37Rv
[3] = system: Mycobacterium smegmatis mc2155; assay: Anti-mycobacterial activity of nitazoxanides, MIC in Middlebrook 7H9; type: cell-based; details: Middlebrook 7H9, 37° C.; for MIC: Mycolicibacterium smegmatis, MC2155, read-out: Minimal Inhibitory Concentration, M. smegmatis
Method: (§1) (1) Strains: Mycobacterium smegmatis mc2155, Mycobacterium chelonae EOP-1, Mycobacterium marinum ATCC 927, Mycobacterium avium Va14(T), and Mycobacterium abscessus AAy-P-1).
(§2) (2) Medium: Middlebrook 7H9 containing 0.5% (vol/vol) glycerol and 10% (vol/vol) oleic acid-albumin.
(§3) (3) Incubation Temperature: 37° C., except M. marinum 30° C.
(§4) (4) Nitazoxanides: Precipitates were present in wells of nitazoxanides with high concentrations (250-31 μg/mL) except for 162080, 162088, 16b2026, and 16b2031.
(5) Decolorization: Almost all the yellow nitazoxanides, namely 16b1090, 16b1092 and 16b1093, 16b1094, 16b2023, 16b2025, and 16b2026 were decolorized by M. smegmatis strain mc2155. None of the other mycobacterial strains decolorized the compounds. Note that the compound numbers are also referred to herein with the prefix VPC.
(§5) The strains used were Mycobacterium smegmatis mc2155, Mycobacterium chelonae EOP-1, Mycobacterium marinum ATCC 927, Mycobacterium avium Va14(T), and Mycobacterium abscessus AAy-P-1. The medium use was Middlebrook 7H9 containing 0.5% (vol/vol) glycerol and 10% (vol/vol) oleic acid-albumin. Incubation Temperature was 37° C., except for M. marinum at 30° C. For nitazoxanides, precipitates were present in wells of nitazoxanides with high concentrations (250-31 μg/mL) except for 162080, 162088, 16b2026, and 16b2031.
Decolorization: Almost all the yellow nitazoxanides, namely 16b1090, 16b1092 and 16b1093, 16b1094, 16b2023, 16b2025, and 16b2026 were decolorized by M. smegmatis strain mc2155. None of the other mycobacterial strains decolorized the compounds.

[4] = system: Mycobacterium abscessus AAy-P-1; assay: as above; type: cell-based; details: Middlebrook 7H9, 37° C.; for MIC: Mycobacteroides abscessus, AAYP1, read-out: Minimal Inhibitory Concentration, M. abscessus
Method: as §1, §2, §3, §4, §5

[5] = system: Mycobacterium avium Va14(T); assay: as above; type: cell-based; details: Middlebrook 7H9, 37° C.; for MIC: Mycobacterium avium, read-out: Minimal Inhibitory Concentration, M. avium
Method: as §1, §2, §3, §4, §5

[6] = system: Mycobacterium chelonae EOP-1; assay: as above; type: cell-based; details: Middlebrook 7H9, 37° C.; for MIC: read-out: Minimal Inhibitory Concentration, M. chelonae
Method: as §1, §2, §3, §4, §5

[7] = system: Mycobacterium marinum ATCC 927; assay: as above; type: cell-based; details: Middlebrook 7H9, 30° C.; for MIC: Mycobacterium marinum, ATCC927, read-out: Minimal Inhibitory Concentration, M. marinum
Method: as §1, §2, §3, §4, §5

[8] = H37RV, isolate H37Rv (Reference)
[9] = read-out: % Inhibit growth, MDR
[10] = read-out: % Inhibit growth, XDR

NNC(=O)c1ccncc1 [Isoniazid, reference compound]
MIC [1, 8]: ≤ 125 µg/mL
MIC ([1]; isolate 234 (MDR-TB)): 16000 µg/mL (≈ 117000 µM)
MIC ([1]; isolate 283 (susceptible)): ≤ 125 µg/mL
MIC ([1]; isolate 565 (MDR-TB)): 8000 µg/mL (≈ 58300 µM)
MIC ([1]; isolate 694 (MDR-TB)): 16000 µg/mL (≈ 117000 µM)
MIC ([1]; isolate 750 (MDR-TB)): 8000 µg/mL (≈ 58300 µM)
MIC ([1]; isolate 823 (XDR-TB)): 8000 µg/mL (≈ 58300 µM)
MIC ([1]; isolate 971 (MDR-TB)): 4000 µg/mL (≈ 29200 µM)

CO[C@H]1/C=C/O[C@@]2(C)Oc3c(C)c(O)c4c(O)c(c(/C=N/N5CCN(C)CC5)c(O)c4c3C2=O)NC(=O)/C(C)=C\C=C\[C@H](C)[C@H](O)[C@@H](C)[C@@H](O)[C@@H](C)[C@H](OC(C)=O)[C@@H]1C [Rifampin, reference compound]
MIC [1, 8]: ≤ 125 µg/mL
MIC ([1]; isolate 234 (MDR-TB)): 16000 µg/mL (≈ 19400 µM)
MIC ([1]; isolate 283 (susceptible)): ≤ 125 µg/mL
MIC ([1]; isolate 565 (MDR-TB)): ≥ 32000 µg/mL
MIC ([1]; isolate 694 (MDR-TB)): ≥ 32000 µg/mL
MIC ([1]; isolate 750 (MDR-TB)): ≥ 32000 µg/mL
MIC ([1]; isolate 823 (XDR-TB)): ≥ 32000 µg/mL
MIC ([1]; isolate 971 (MDR-TB)): ≥ 32000 µg/mL

O=C(Nc1ncc([N+](=O)[O-])s1)c1ccc(Cl)c(C(F)(F)F)c1 [VPC16a1060, 4-Chloro-N-(5-nitrothiazol-2-yl)-3-(trifluoromethyl)benzamide]
inhibition [2, 9]: 98%
inhibition [2, 10]: 90%

CCCCCC(=O)Nc1sc([N+](=O)[O-])cc1[N+](=O)[O-] [VPC16b1089]
% Inhibit growth, MDR [2]: 0%
% Inhibit growth, Susceptible [2]: 0%
% Inhibit growth, XDR [2]: 0%
% Inhibit growth, H37Rv [2]: 0%
Minimal Inhibitory Concentration, M. smegmatis [3]: 125 µg/mL
Minimal Inhibitory Concentration, M. abscessus [4]: 4. μg/mL
Minimal Inhibitory Concentration, M. avium [5]: 63 µg/mL
Minimal Inhibitory Concentration, M. chelonae [6]: 31 µg/mL
Minimal Inhibitory Concentration, M. marinum [7]: 16 µg/mL

O=C(Nc1sc([N+](=O)[O-])cc1[N+](=O)[O-])c1ccccc1 [VPC16b1090]
inhibition [2, 9]: 100%
inhibition [2, 10]: 100%
Potency against M. tuberculosis in words (Table 1) [2]: most potent
MIC [3]: 16 µg/mL (≈ 54.6 µM)
MIC [4]: 0.5 µg/mL (≈ 1.7 µM)
MIC [5]: 8 µg/mL (≈ 27.3 µM)
MIC [6]: 1 µg/mL (≈ 3.41 µM)
MIC [7]: 4 µg/mL (≈ 13.6 µM)
MIC [1, 8]: 4000 µg/mL (≈ 13600 µM)
MIC ([1]; isolate 234 (MDR-TB)): 4000 µg/mL (≈ 13600 µM)
MIC ([1]; isolate 283 (susceptible)): 4000 µg/mL (≈ 13600 µM)
MIC ([1]; isolate 565 (MDR-TB)): 4000 µg/mL (≈ 13600 µM)
MIC ([1]; isolate 694 (MDR-TB)): 2000 µg/mL (≈ 6820 µM)
MIC ([1]; isolate 750 (MDR-TB)): 4000 µg/mL (≈ 13600 µM)
MIC ([1]; isolate 823 (XDR-TB)): 4000 µg/mL (≈ 13600 µM)
MIC ([1]; isolate 971 (MDR-TB)): 2000 µg/mL (≈ 6820 µM)

O=C(Nc1sc([N+](=O)[O-])cc1[N+](=O)[O-])c1cccs1 [VPC16b1093, N-(3,5-Dinitrothiophen-2-yl)thiophene-2-carboxamide]
inhibition [2, 9]: 100%
inhibition [2, 10]: 100%
MIC [3]: 125 µg/mL (≈ 418 µM)
MIC [4]: 1 µg/mL (≈ 3.34 µM)
MIC [5]: 31 µg/mL (≈ 104 µM)
MIC [6]: 2 µg/mL (≈ 6.68 µM)
MIC [7]: 31 µg/mL (≈ 104 µM)

O=C(Nc1sc([N+](=O)[O-])cc1[N+](=O)[O-])c1ccoc1 [VPC16b1094]
inhibition [2, 9]: 100%
inhibition [2, 10]: 100%
Potency against M. tuberculosis in words (Table 1) [2]: most potent
MIC [3]: 16 µg/mL (≈ 56.5 µM)
MIC [4]: 2 µg/mL (≈ 7.06 µM)
MIC [5]: 16 µg/mL (≈ 56.5 µM)
MIC [6]: 2 µg/mL (≈ 7.06 µM)
MIC [7]: 4 µg/mL (≈ 14.1 µM)
MIC [1, 8]: 4000 µg/mL (≈ 14100 µM)
MIC ([1]; isolate 234 (MDR-TB)): 4000 µg/mL (≈ 14100 µM)
MIC ([1]; isolate 283 (susceptible)): 4000 µg/mL (≈ 14100 µM)
MIC ([1]; isolate 565 (MDR-TB)): 4000 µg/mL (≈ 14100 µM)
MIC ([1]; isolate 694 (MDR-TB)): 4000 µg/mL (≈ 14100 µM)
MIC ([1]; isolate 750 (MDR-TB)): 4000 µg/mL (≈ 14100 µM)
MIC ([1]; isolate 823 (XDR-TB)): 4000 µg/mL (≈ 14100 µM)
MIC ([1]; isolate 971 (MDR-TB)): 4000 µg/mL (≈ 14100 µM)

O=C(Nc1sc([N+](=O)[O-])cc1[N+](=O)[O-])c1cc(C(F)(F)F)ccc1Cl [VPC16b2026, 2-Chloro-N-(3,5-dinitrothiophen-2-yl)-5-(trifluoromethyl)benzamide]
MIC [3]: 31 µg/mL (≈ 78.3 µM)
MIC [4]: 0.25 µg/mL (≈ 0.632 µM)
MIC [5]: 16 µg/mL (≈ 40.4 µM)
MIC [6]: 4 µg/mL (≈ 10.1 µM)
MIC [7]: 8 µg/mL (≈ 20.2 µM)

NCCOc1ccccc1C(=O)Nc1sc([N+](=O)[O-])cc1[N+](=O)[O-] [VPC16b2031, 2-(2-Aminoethoxy)-N-(3,5-dinitrothiophen-2-yl)benzamide]
MIC [3]: 63 µg/mL (≈ 179 µM)
MIC [4]: 250 µg/mL (≈ 710 µM)
MIC [5]: 63 µg/mL (≈ 179 µM)
MIC [6]: 125 µg/mL (≈ 355 µM)
MIC [7]: 16 µg/mL (≈ 45.4 µM)

O=C(Nc1ncc([N+](=O)[O-])s1)c1cc2ccccc2s1 [VPC161180]
% Inhibit growth, MDR [2]: 0%
% Inhibit growth, Susceptible [2]: 0%
% Inhibit growth, XDR [2]: 50%
% Inhibit growth, H37Rv [2]: 80%

O=C(Nc1ncc([N+](=O)[O-])s1)c1cccc(C(F)(F)F)c1 [VPC161183, N-(5-Nitrothiazol-2-yl)-3-(trifluoromethyl)benzamide]
inhibition [2, 9]: 70%
inhibition [2, 10]: 50%

CC(C)(C)OC(=O)Nc1ccccc1C(=O)Nc1ncc([N+](=O)[O-])s1 [VPC162047, tert-Butyl 2-(5-nitrothiazol-2-ylcarbamoyl)phenylcarbamate]
inhibition [2, 9]: 92%
inhibition [2, 10]: 50%

CCCCCC(=O)Nc1nc(Cl)c([N+](=O)[O-])s1 [VPC162080]
% Inhibit growth, MDR [2]: 95%
% Inhibit growth, Susceptible [2]: 73%
% Inhibit growth, XDR [2]: 90%
% Inhibit growth, H37Rv [2]: 90%
Minimal Inhibitory Concentration, M. smegmatis [3]: 125 µg/mL
Minimal Inhibitory Concentration, M. abscessus [4]: 0.25 µg/mL
Minimal Inhibitory Concentration, M. avium [5]: 125 µg/mL
Minimal Inhibitory Concentration, M. chelonae [6]: 16 µg/mL
Minimal Inhibitory Concentration, M. marinum [7]: 16 µg/mL

O=C(Nc1nc(Cl)c([N+](=O)[O-])s1)c1ccccc1 [VPC162087]
% Inhibit growth, MDR [2]: 100%
% Inhibit growth, Susceptible [2]: 97%
% Inhibit growth, XDR [2]: 100%
% Inhibit growth, H37Rv [2]: 97%
Minimal Inhibitory Concentration, M. smegmatis [3]: 31 µg/mL
Minimal Inhibitory Concentration, M. abscessus [4]: >250 µg/mL
Minimal Inhibitory Concentration, M. avium [5]: 125 µg/mL
Minimal Inhibitory Concentration, M. chelonae [6]: 16 µg/mL
Minimal Inhibitory Concentration, M. marinum [7]: 16 µg/mL

O=C(Nc1nc(Cl)c([N+](=O)[O-])s1)c1cccc(C(F)(F)F)c1 [VPC162088]
inhibition [2, 9]: 90%
inhibition [2, 10]: 70%
MIC [3]: 31 µg/mL (≈ 88.1 µM)
MIC [4]: 0.5 µg/mL (≈ 1.42 µM)
MIC [5]: 250 µg/mL (≈ 711 µM)
MIC [6]: 63 µg/mL (≈ 179 µM)
MIC [7]: 31 µg/mL (≈ 88.1 µM)
